We go through 29 compounds from US20250197387A1, “BCL-XL DEGRADERS AND USES THEREOF” (Kymera Therapeutics, Inc., priority 2021, published 2025).

This test concerns the target T1, BCL-XL (Homo sapiens, UniProt Q07817).
T1 construct: endogenous in cells; host or cells: MOLT-4
Put plainly: Bcl-xL ELISA degradation in MOLT-4 cells, 6 h. Format: cell-based. Particulars: for DC50: read-out: Bcl-xL ELISA in MOLT-4 degradation 6 h: Mean external-Abs DC50. On the procedure: The letter codes for BCL-XL DC50 include: A (<0.01 μM); B (0.01-0.1 μM); C (>[…]); D (>0.5-1.0 μM); and E (>1.0 μM). The letter codes for Dmax % include A (>75%); B (50 to 75%); C (<50%).

T1 sequence (Q07817 whole entry): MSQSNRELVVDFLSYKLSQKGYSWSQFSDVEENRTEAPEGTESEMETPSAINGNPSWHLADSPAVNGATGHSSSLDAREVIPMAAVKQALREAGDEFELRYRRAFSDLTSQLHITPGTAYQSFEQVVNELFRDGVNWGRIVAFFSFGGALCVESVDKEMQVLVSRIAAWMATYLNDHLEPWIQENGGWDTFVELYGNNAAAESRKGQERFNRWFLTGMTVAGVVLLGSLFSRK

For the compound `Cc1cc([C@@H](C(=O)N2C[C@H](O)C[C@H]2C(=O)NCc2ccc(-c3scnc3C)cc2OCCCCCCN(C)C(=O)c2nc(N3CCc4cccc(C(=O)Nc5nc6ccccc6s5)c4C3)ccc2-c2cnn(CC3CCCCC3)c2C)C(C)C)on1` [I-264], the Dmax (usually the greatest extent of degradation seen) is 50 to 75% and the DC50 (usually the midpoint of the concentration-degradation curve) fell in the range of 10 to 100 nM. Turning to `Cc1ncsc1-c1ccc([C@H](C)NC(=O)[C@@H]2C[C@@H](O)CN2C(=O)C(c2cc(N3CCC(CN4CCC(NC(=O)c5nc(N6CCc7cccc(C(=O)Nc8nc9ccccc9s8)c7C6)ccc5-c5cnn(CC6CCCCC6)c5C)CC4)CC3)no2)C(C)C)cc1` (stereo partly drawn) [I-238], the maximal degradation (Dmax) was less than 50%. For `Cc1ncsc1-c1ccc([C@H](C)NC(=O)[C@@H]2C[C@@H](O)CN2C(=O)[C@@H](c2cc(OC3CN(CCCS(=O)(=O)NC(=O)c4nc(N5CCc6cccc(C(=O)Nc7nc8ccccc8s7)c6C5)ccc4-c4cnn(CC5CCCCC5)c4C)C3)no2)C(C)C)cc1` [I-271], the Dmax is greater than 75% and the DC50 lay within 10 to 100 nM.

`Cc1ncsc1-c1ccc([C@H](C)NC(=O)[C@@H]2C[C@@H](O)CN2C(=O)[C@@H](NC(=O)C2CCN(c3ccc(S(=O)(=O)NC(=O)c4nc(N5CCc6cccc(C(=O)Nc7nc8ccccc8s7)c6C5)ccc4-c4cnn(CC5CCCCC5)c4C)cc3Cl)CC2)C(C)(C)C)cc1` [I-274]: the Dmax is 50 to 75% and the DC50 lay within 10 to 100 nM. For the compound `C#Cc1ccc([C@H](CO)NC(=O)[C@@H]2C[C@@H](O)CN2C(=O)[C@@H](NC(=O)C2CCN(c3ccc(S(=O)(=O)NC(=O)c4nc(N(C)c5cc(C)c(Nc6nc7ccccc7s6)nn5)ccc4-c4cnn(CC5(CC)CC6CC(C)CC(C6)C5)c4C)cc3)CC2)C(C)(C)C)cc1` (stereo partly drawn) [I-245], the Dmax is greater than 75% and the DC50 fell in the range of 10 to 100 nM.

For the compound `Cc1ncsc1-c1ccc(CNC(=O)[C@@H]2C[C@@H](O)CN2C(=O)[C@@H](NC(=O)C2(F)CC2)C(C)(C)C)c(N2CCC(N3CCC(NC(=O)c4nc(N5CCc6cccc(C(=O)Nc7nc8ccccc8s7)c6C5)ccc4-c4cnn(CC5CCCCC5)c4C)CC3)CC2)c1` [I-270], the Dmax was less than 50% and the DC50 is greater than 1000 nM. As to `Cc1ncsc1-c1ccc([C@H](C)NC(=O)[C@@H]2C[C@@H](O)CN2C(=O)[C@@H](NC(=O)CCCCN(C)CCCS(=O)(=O)NC(=O)c2nc(N3CCc4cccc(C(=O)Nc5nc6ccccc6s5)c4C3)ccc2-c2cnn(CC3CCCCC3)c2C)C(C)(C)C)cc1` [I-232], the Dmax was in the range of 50 to 75% and the 50% degradation concentration (DC50) was in the range of 100 to 500 nM.

Regarding `C#Cc1ccc([C@H](CO)NC(=O)[C@@H]2C[C@@H](O)CN2C(=O)C(c2cc(OC3CCN(CCCS(=O)(=O)NC(=O)c4nc(N5CCc6cccc(C(=O)Nc7nc8ccccc8s7)c6C5)ccc4-c4cnn(CC5CCCCC5)c4C)CC3)no2)C(C)C)cc1` (stereo partly drawn) [I-228], the greatest degradation seen (Dmax) was 50 to 75% and the DC50 lay within 100 to 500 nM.

On to `C#Cc1ccc(CNC(=O)[C@@H]2C[C@@H](O)CN2C(=O)[C@@H](c2cc(N3CCN(c4ccc(S(=O)(=O)NC(=O)c5nc(N6CCc7cccc(C(=O)Nc8nc9ccccc9s8)c7C6)ccc5-c5cnn(CC6CCCCC6)c5C)cc4)CC3)no2)C(C)C)c(OC)c1` [I-263], for which the maximal degradation (Dmax) lay in the range of 50 to 75% and the half-maximal degradation concentration (DC50) is 10 to 100 nM. For the compound `Cc1ncsc1-c1ccc(CNC(=O)[C@@H]2C[C@@H](O)CN2C(=O)[C@@H](NC(=O)C2CCN(c3ccc(S(=O)(=O)NC(=O)c4nc(N5CCc6cccc(C(=O)Nc7nc8ccccc8s7)c6C5)ccc4-c4cnn(CC5CCCCC5)c4C)cc3)CC2)C(C)(C)C)cc1` [I-252], the Dmax was greater than 75% and the half-maximal degradation concentration (DC50) was in the range of 10 to 100 nM.

For `Cc1ncsc1-c1ccc([C@H](C)NC(=O)[C@@H]2C[C@@H](O)CN2C(=O)[C@@H](NC(=O)C2CCN(c3ccc(S(=O)(=O)NC(=O)c4nc(N5CCc6cccc(C(=O)Nc7nc8ccccc8s7)c6C5)ccc4-c4cnn(CC5CCOCC5)c4C)cc3)CC2)C(C)(C)C)cc1` [I-260], the greatest degradation seen (Dmax) lay within 50 to 75% and the 50% degradation concentration (DC50) lay within 100 to 500 nM. For the compound `Cc1ncsc1-c1ccc(CNC(=O)N2C[C@@H](O)CC2C(=O)[C@@H](NC(=O)C2(F)CC2)C(C)(C)C)c(O[C@H]2C[C@H](N3CCC(NC(=O)c4nc(N5CCc6cccc(C(=O)Nc7nc8ccccc8s7)c6C5)ccc4-c4cnn(CC5CCCCC5)c4C)CC3)C2)c1` (stereo partly drawn) [I-269], the maximal degradation (Dmax) is less than 50% and the half-maximal degradation concentration (DC50) is greater than 1000 nM. Turning to `Cc1ncsc1-c1ccc([C@H](C)NC(=O)[C@@H]2C[C@@H](O)CN2C(=O)[C@@H](NC(=O)C2CCN(c3ncc(S(=O)(=O)NC(=O)c4nc(N5CCc6cccc(C(=O)Nc7nc8ccccc8s7)c6C5)ccc4-c4cnn(CC5CCCCC5)c4C)cn3)CC2)C(C)(C)C)cc1` [I-250], the Dmax was greater than 75% and the 50% degradation concentration (DC50) was 10 to 100 nM. For `Cc1ncsc1-c1ccc([C@H](C)NC(=O)[C@@H]2C[C@@H](O)CN2C(=O)[C@@H](NC(=O)C2CCN(c3ccc(S(=O)(=O)NC(=O)c4nc(N5CCc6cccc(C(=O)Nc7nc8ccccc8s7)c6C5)ccc4-c4cnn(CC5CCCCC5)c4C)c(Cl)c3)CC2)C(C)(C)C)cc1` [I-276] the same measures were greater than 75% and 10 to 100 nM.

For `Cc1cc([C@@H](C(=O)N2C[C@H](O)C[C@H]2C(=O)NCc2ccc(-c3scnc3C)cc2OCCCN2CCN(C(=O)c3nc(N4CCc5cccc(C(=O)Nc6nc7ccccc7s6)c5C4)ccc3-c3cnn(CC4CCCCC4)c3C)CC2)C(C)C)on1` [I-268], the maximal degradation (Dmax) was greater than 75% and the half-maximal degradation concentration (DC50) is less than 10 nM. For `Cc1ncsc1-c1ccc([C@H](C)NC(=O)[C@@H]2C[C@@H](O)CN2C(=O)[C@@H](NC(=O)C2CCN(c3ccc(S(=O)(=O)NC(=O)c4nc(N5CCc6cccc(C(=O)Nc7nc8ccccc8s7)c6C5)ccc4-c4cnn(CC5(CCC(=O)O)CCCCC5)c4C)cc3)CC2)C(C)(C)C)cc1` [I-255], in that order: 50 to 75% and 100 to 500 nM. For `Cc1ncsc1-c1ccc(CNC(=O)[C@@H]2C[C@@H](O)CN2C(=O)[C@@H](NC(=O)C2(F)CC2)C(C)(C)C)c(OC2CCN(CC3CCN(C(=O)c4nc(N5CCc6cccc(C(=O)Nc7nc8ccccc8s7)c6C5)ccc4-c4cnn(CC5CCCCC5)c4C)CC3)CC2)c1` [I-227], in that order: less than 50% and greater than 1000 nM. Take `Cc1ncsc1-c1ccc([C@H](C)NC(=O)[C@@H]2C[C@@H](O)CN2C(=O)[C@@H](NC(=O)N2CCC(N3CCN(C(=O)c4nc(N5CCc6cccc(C(=O)Nc7nc8ccccc8s7)c6C5)ccc4-c4cnn(CC5CCCCC5)c4C)CC3)CC2)C(C)(C)C)cc1` [I-247]: the Dmax is less than 50% and the DC50 is greater than 1000 nM. The compound `Cc1ncsc1-c1ccc([C@H](C)NC(=O)[C@@H]2C[C@@H](O)CN2C(=O)[C@@H](NC(=O)N2CCC3(CCN(CC#Cc4ccc(OCCCc5sc(N6CCc7cccc(C(=O)Nc8nc9ccccc9s8)c7C6)nc5C(=O)O)c(F)c4)CC3)CC2)C(C)(C)C)cc1` [I-71] returned a Dmax of less than 50%.

Regarding `Cc1cc([C@@H](C(=O)N2C[C@H](O)C[C@H]2C(=O)NCc2ccc(-c3scnc3C)cc2OCCN(C)C2CCN(C(=O)c3nc(N4CCc5cccc(C(=O)Nc6nc7ccccc7s6)c5C4)ccc3-c3cnn(CC4CCCCC4)c3C)CC2)C(C)C)on1` [I-266], the Dmax was in the range of 50 to 75% and the DC50 lay within 100 to 500 nM. Regarding `Cc1ncsc1-c1ccc([C@H](C)NC(=O)[C@@H]2C[C@@H](O)CN2C(=O)C(c2cc(N3CC(CN4CCC(NC(=O)c5nc(N6CCc7cccc(C(=O)Nc8nc9ccccc9s8)c7C6)ccc5-c5cnn(CC6CCCCC6)c5C)CC4)C3)no2)C(C)C)cc1` (stereo partly drawn) [I-239], the Dmax was less than 50%. Regarding `C#Cc1ccc([C@H](C)NC(=O)[C@@H]2C[C@@H](O)CN2C(=O)[C@@H](NC(=O)C2CCN(c3ccc(S(=O)(=O)NC(=O)c4nc(N5CCc6cccc(C(=O)Nc7nc8ccccc8s7)c6C5)ccc4-c4cnn(CC5CCCCC5)c4C)cc3)CC2)C(C)(C)C)cc1` [I-253], the Dmax was greater than 75% and the DC50 was less than 10 nM.

As to `Cc1cc(S(=O)(=O)NC(=O)c2nc(N3CCc4cccc(C(=O)Nc5nc6ccccc6s5)c4C3)ccc2-c2cnn(CC3CCCCC3)c2C)ccc1N1CCC(C(=O)N[C@H](C(=O)N2C[C@H](O)C[C@H]2C(=O)N[C@@H](C)c2ccc(-c3scnc3C)cc2)C(C)(C)C)CC1` [I-273], the maximal degradation (Dmax) was greater than 75% and the half-maximal degradation concentration (DC50) was less than 10 nM. For `Cc1cc([C@@H](C(=O)N2C[C@H](O)C[C@H]2C(=O)NCc2ccc(-c3scnc3C)cc2OCCN2CCN(C(=O)c3nc(N4CCc5cccc(C(=O)Nc6nc7ccccc7s6)c5C4)ccc3-c3cnn(CC4CCCCC4)c3C)CC2)C(C)C)on1` [I-267] the same measures were less than 50% and greater than 1000 nM. On to `C#Cc1ccc(CNC(=O)[C@@H]2C[C@@H](O)CN2C(=O)[C@@H](NC(=O)C2CCN(c3ccc(S(=O)(=O)NC(=O)c4nc(N5CCc6cccc(C(=O)Nc7nc8ccccc8s7)c6C5)ccc4-c4cnn(CC5CCCCC5)c4C)cc3)CC2)C(C)(C)C)c(OCCO)c1` [I-259], for which the Dmax is greater than 75% and the 50% degradation concentration (DC50) lay in the range of 10 to 100 nM.

Regarding `Cc1ncsc1-c1ccc([C@H](C)NC(=O)[C@@H]2C[C@@H](O)CN2C(=O)[C@@H](NC(=O)C2CCN(c3ccc(S(=O)(=O)NC(=O)c4nc(N5CCc6cccc(C(=O)Nc7nc8ccccc8s7)c6C5)ccc4-c4cnn(CC(C)C)c4C)cc3)CC2)C(C)(C)C)cc1` [I-240], the Dmax is greater than 75% and the 50% degradation concentration (DC50) is 10 to 100 nM. For `Cc1ncsc1-c1ccc([C@H](C)NC(=O)[C@@H]2C[C@@H](O)CN2C(=O)[C@@H](NC(=O)N2CCN(c3ccc(S(=O)(=O)NC(=O)c4nc(N5CCc6cccc(C(=O)Nc7nc8ccccc8s7)c6C5)ccc4-c4cnn(CC5CCCCC5)c4C)cc3)CC2)C(C)(C)C)cc1` [I-261], in that order: greater than 75% and 10 to 100 nM. Turning to `Cc1ncsc1-c1ccc([C@H](C)NC(=O)[C@@H]2C[C@@H](O)CN2C(=O)C(c2cc(OC3CCN(c4ccc(S(=O)(=O)NC(=O)c5nc(N6CCc7cccc(C(=O)Nc8nc9ccccc9s8)c7C6)ccc5-c5cnn(CC6CCCCC6)c5C)cc4)CC3)no2)C(C)C)cc1` (stereo partly drawn) [I-231], the Dmax was less than 50%. `Cc1ncsc1-c1ccc(CNC(=O)[C@@H]2C[C@@H](O)CN2C(=O)[C@@H](NC(=O)C2(F)CC2)C(C)(C)C)c(OCCCC(=O)N2CCN(CC#Cc3ccc(OCCCc4sc(N5CCc6cccc(C(=O)Nc7nc8ccccc8s7)c6C5)nc4C(=O)O)c(F)c3)CC2)c1` [I-223]: the maximal degradation (Dmax) was 50 to 75% and the half-maximal degradation concentration (DC50) lay in the range of 10 to 100 nM.
